This note sets out measurements from ChEMBL document CHEMBL1133970, “Novel 3-dodecanoylindole-2-carboxylic acid inhibitors of cytosolic phospholipase A(2)” (Bioorg Med Chem Lett, 2001).

Each structure is given as a SMILES string.

The experiment is filed under the species Homo sapiens. The experiment can be described thus: Cytosolic phospholipase A2 (c-PLA2) inhibitory potency of the compound was evaluated by measuring the calcium ionophore A-23,187-induced arachidonic acid release from human platelets. Format: functional.
As to `CCCCCCCCCCCC(=O)c1c(C(=O)O)n(CCOc2ccc(CC(=O)O)cc2)c2ccccc12`, the IC50 is 2600 nM. In the case of `CCCCCCCCCCCC(=O)c1c(C(=O)O)n(CCCCCCCC(=O)O)c2ccccc12` it was 2500 nM; in that of `CCCCCCCCCCCC(=O)c1c(C(=O)O)n(CCSc2ccc(C(=O)O)cc2)c2ccccc12`, 2500 nM. In the case of `CCCCCCCCCCCC(=O)c1c(C(=O)O)n(CCOc2ccc(C(=O)O)cc2)c2ccccc12`, the IC50 is 860 nM.

The term IC50 denotes the concentration needed to halve the response being measured.
